The results in this text go back to patent publication US9879013B2, “Purinone derivative” (ONO PHARMACEUTICAL CO., LTD., priority 2010, dated 2018).

Each structure is given as a SMILES string. Some results are limits rather than exact numbers.

What is called IC50 is the concentration needed to halve the response being measured.

The subject of data set [1] is Human liver cells. Description: Cytotoxicity in cultured human hepatoma cells (ATP concentration, Celltiter Glo). Type of data set: cell-based. The conditions noted are these: 50% decline in ATP concentration, exposure for 24 hours, read-out: Toxicity for human liver cells (IC50 (μM)). Here is the method: (§1) Measurement of the Cytotoxicity and Ability to Reduce the Mitochondrial Membrane Potential in Cultured Human Hepatoma Cells
(§2) Human liver cells were seeded into a collagen-coated 96-well plate at a cell density of 30,000 cells/well and incubation was carried out overnight in an incubator at 37° C. in 5% CO2-95% air. The cultured cells were stained for 1 hour with 5,5′,6,6′-tetrahydro-1,1′,3,3′-tetramethyl-benzamidazolocarbocyanine iodide (JC-1) followed by treatment with the test compound. The test compound was dissolved in DMSO and then diluted with the liquid culture medium Hepatocyte Culture Medium (HCM) and added to the cells. The test compound treatment concentrations were 0, 6.25, 12.5, 25, 50, 100, 200, and 400 μmol/L. After exposure to the test compound for 24 hours, measurement was performed with a SpectraMax plate reader (Molecular Devices, LLC) at an excitation wavelength of 485 nm and a fluorescence wavelength of 538 nm and an excitation wavelength of 544 nm and a fluorescence wavelength of 590 nm. The membrane potential was determined by the ratio between the 544 nm/590 nm measurement value and the 485 nm/538 nm measurement value. After this, the ATP concentration in the cells was measured using a Celltiter Glo luminescent assay kit (Promega Corporation) in order to evaluate the cell toxicity of the test compound. The cells were lysed by the assay buffer provided with the measurement kit and the concentration of the ATP released from the cells was measured using the luciferin-luciferase enzyme activity as the index. The emission was measured using a SpectraMax plate reader. […] The ability to lower the mitochondrial membrane potential of the test compounds and the cytotoxicity of the test compounds are given in Table 3 below.
(In ATP-based viability assays light output follows the ATP content of the culture.)

The target of a further data set is Human CYP2C19 (Homo sapiens (Human), UniProt P33261). Description: Inhibitory action on human CYP2C19. Type of data set: in vitro ADME. Here is the method: (§3) Measurement of the Inhibitory Activity on Drug-Metabolizing Enzymes (Inhibitory Action on Human CYP2C8 and Human CYP2C19)
The reaction was carried out in a 96-well plate. The positive control substances (CYP2C8: ketoconazole, CYP2C19: tranylcypromine) were adjusted (CYP2C8: 0.6 and 6 mmol/L, CYP2C19: 0.9 and 9 mmol/L) with DMSO to concentrations that were 300 times the final concentration, and solutions were prepared (CYP2C8: 8 and 80 μmol/L, CYP2C19: 12 and 120 μmol/L) by 75× dilution with purified water that contained 2.7% acetonitrile. The test compounds were adjusted to […] with DMSO and were adjusted to 4 and 40 μmol/L by 75× dilution with purified water that contained 2.7% acetonitrile. A reaction mixture was then prepared (the numerical values are final concentrations) by the addition of potassium phosphate buffer (pH 7.4), magnesium chloride ([…]), substrate (CYP2C8: dibenzylfluorescein 1 μmol/L, CYP2C19: 3-cyano-7-ethoxycoumarin 25 μmol/L), and E. coli-expressed liver microsome CYP2C8 (Cypex, 10 pmol/L) and CYP2C19 (Cypex, 3 pmol/L). 100 μL of this reaction mixture and 50 μL of the test compound prepared as described above and the positive control solution prepared as described above were dispensed into each well and pre-incubation was carried out at 10 minutes for 37° C. The reaction was started by the addition of 50 μL NADPH solution (final concentration=1 mmol/L) and incubation was carried out for 30 minutes at 37° C. The fluorescence intensity was measured (CYP2C8: excitation wavelength=485 nm, fluorescence wavelength=538 nm; CYP2C19: excitation wavelength=409 nm, fluorescence wavelength=460 nm) immediately after the addition of the NADPH and after incubation for 30 minutes.

The test system of data set [2] is Human liver cells. Description: Ability to reduce the mitochondrial membrane potential in cultured human hepatoma cells (JC-1). Type of data set: cell-based. The conditions noted are these: JC-1, exposure for 24 hours, read-out: Ability to lower the mitochondrial membrane potential (IC50 (μM)).
Source text: as §1
Tissue that maintains an aerobic equilibrium, e.g., the kidneys and heart, and tissue that is exposed to high drug concentrations and carries out drug metabolism, e.g., the liver, are known to be sensitive to mitochondrial dysfunction (Drug Discovery Today, 12 (17-18), 777-785, 2007). The reduction or extinction of the mitochondrial membrane potential by a drug is caused by the direct inhibition of the electron transport system, decoupling of electron transport from ATP synthase, or the opening of a mitochondrial membrane permeability transition pore. As a consequence, measurement of the mitochondrial membrane potential of liver cells can provide a parameter for hepatotoxicity.
as §2

For data set [3], the system named is B cells (CD20-positive CD3-negative cells) of human PBMC. Description: B cell activation using human PBMC (CD69-positive signal, FACS). Type of data set: cell-based. The following applies: anti-IgM antibody 1 μg/mL / IL-4 3 ng/mL, 22 hours. Here is the method: (§4) Measurement of B Cell Activation or T Cell Activation Using Human PBMC
(§5) A 10 mmol/L solution of the test compound in DMSO was dispensed into a 96-well plate (Nunc) and a 5× dilution series was prepared using DMSO. A 100× concentration test compound dilution solution was prepared by an additional 10× dilution with RPMI1640 medium (contained 10% HI-FBS, 1% penicillin). Human peripheral blood mononuclear cells (PBMC) were diluted with the medium to provide a density of 2×10^6 cells/mL. 396 μL of the cell suspension was added to a 96-well plate into which 4 μL of the 100× concentration test compound dilution solution or the solvent (10% DMSO) had already been introduced and incubation was performed for 10 minutes at 37° C. and 5% CO2. 10 μL of an anti-IgM antibody (Southern Biotech)/IL-4 (R & D Systems) solution or an anti-CD3/CD28 antibody bead suspension (Invitrogen Corporation) was added to a 96-well plate and 90 μL of the cell suspension prepared as described above was also added (final concentrations: anti-IgM antibody=1 μg/mL, IL-4=3 ng/mL, and anti-CD3/CD28 antibody beads=2×10^6 beads/mL). 10 μL of the medium was added to the unstimulated sample wells in place of these stimulating substances, and standing at 37° C. and 5% CO2 was again performed. Incubation was carried out for 16 hours in the case of the evaluation of T cell activation and for 22 hours in the case of the evaluation of B cell activation. 100 μL Cytofix Buffer (BD Biosciences) was added; holding for 15 minutes at 37° C. was performed; centrifugation for 10 minutes at 1500 rpm was carried out; and the supernatant was removed. 200 μL of Perm buffer II (BD Biosciences) at −20° C. was added; holding for 30 minutes on ice was performed; centrifugation for 10 minutes at 1500 rpm was carried out; and the supernatant was removed. 0.5 mL Stain buffer (BD Biosciences) was added and centrifugation was carried out for 10 minutes at 1500 rpm. 100 μL of a mixed antibody solution was added and incubation was performed for 30 minutes on ice in the dark. The antibody was the 10× dilution with Stain Buffer of the 1:1:1 mixture of PerCP-labeled anti-CD3 antibody (BD Biosciences), AF488-labeled anti-CD20 antibody (BD Biosciences), and PE-labeled anti-CD69 antibody (BD Biosciences). 0.4 mL Stain Buffer was added and the supernatant was removed. […] The CD69-positive signal (average fluorescence intensity) of the CD20-positive CD3-negative cells (B cells) or CD3-positive CD20-negative cells (T cells) was measured. After subtracting the value for the unstimulated sample, the % inhibition with reference to the value for the stimulated control sample was determined. The % inhibition was graphically plotted using Prism (ver. 5.01 J, GraphPad Software) and the IC50 value was determined.

The test system of data set [4] is T cells (CD3-positive CD20-negative cells) of human PBMC. The data set is described as follows: T cell activation using human PBMC (CD69-positive signal, FACS). The following applies: anti-CD3/CD28 antibody beads, 16 hours. The format is cell-based. Here is the method:
as §4, §5

A further data set addresses Fyn (Homo sapiens (Human), UniProt P06241). The data set is described as follows: Fyn inhibitory activity, selectivity for Btk (Z'-LYTE kinase assay). Type of data set: biochemical. The conditions noted are these: ratio of the IC50 values of the individual kinases. Here is the method:
(§6) The inhibitory activity for other kinases (for example, Lck, Fyn, and LynA (all from Invitrogen Corporation) was measured in the same manner as described above using the particular kinase in place of the Btk.

In a further data set the target is LynA (Homo sapiens (Human), UniProt P07948). The data set is described as follows: LynA inhibitory activity, selectivity for Btk (Z'-LYTE kinase assay). Type of data set: biochemical. The conditions noted are these: ratio of the IC50 values of the individual kinases. Here is the method:
as §6

For the next data set, the target named is Human CYP2C8 (Homo sapiens (Human), UniProt P10632). Description: Inhibitory action on human CYP2C8. Type of data set: in vitro ADME. Here is the method: as §3
The reaction was carried out in a 96-well plate. […] 100 μL of this reaction mixture and 50 μL of the test compound prepared as described above and the positive control solution prepared as described above were dispensed into each well and pre-incubation was carried out at 10 minutes for 37° C. The reaction was started by the addition of 50 μL NADPH solution (final concentration=1 mmol/L) and incubation was carried out for 30 minutes at 37° C.

A further data set addresses Btk (Homo sapiens (Human), UniProt Q06187). The data set is described as follows: Btk enzyme inhibitory activity (Z'-LYTE Kinase Assay Kit-Tyr1 peptide). Type of data set: biochemical. The conditions noted are these: Tyr-1 peptide 4 μM, Btk 5 nM, ATP 36 μM, 1 hour at 30° C. Here is the method: The Btk enzyme inhibitory activity was measured, based on the protocol provided by the manufacturer, using Btk (Invitrogen Corporation) and the Z′-LYTE® Kinase Assay Kit-Tyr1 peptide (Invitrogen Corporation), which contained the following reagents: Tyr-1 peptide, Thy-1 phosphopeptide, 5× kinase buffer, ATP, development reagent B, development buffer, and stop reagent.
5 μL/well of a solution of the test compound diluted with dimethyl sulfoxide (DMSO), or DMSO, and 10 μL/well of the substrate/enzyme mixture solution were dispensed to a 96-well assay plate and a reaction was carried out for 20 minutes at 30° C. […] The enzymatic reaction was then stopped by adding 10 μL of the stop solution.
The percent inhibition (%) by the test compound was calculated using the following equation. percent inhibition (%) of phosphorylation=1−{(AC−AX)/(AC−AB)}×100 [E1]

For a further data set, the target named is Lck (Homo sapiens (Human), UniProt P06239). Description: Lck inhibitory activity, selectivity for Btk (Z'-LYTE kinase assay). Type of data set: biochemical. The following applies: ratio of the IC50 values of the individual kinases. Here is the method:
as §6

Data set [5] is described as follows: Stability in the rat liver microsome. The conditions noted are these: 0.5 mg/mL microsomes, NADPH, 15 minutes at 37° C.
Method: (§7) Evaluation of the Stability in the Rat and Human Liver Microsome
(§8) A 0.25 mmol/L solution was prepared by diluting the test compound (10 mmol/L DMSO solution, 5 μL) with an aqueous 50% acetonitrile solution (195 μL).
(§9) 20 μL was collected immediately after the start and the reaction was stopped by the addition to 180 μL of acetonitrile that contained an internal standard (warfarin). 20 μL of this solution was stirred with 180 μL of an aqueous 50% acetonitrile solution on a filter plate for protein depletion followed by suction filtration, and the filtrate was used as the standard sample.
(§10) The previously indicated reaction solution was incubated for 15 minutes at 37° C., and 20 μL was then added to 180 μL cold acetonitrile (contained the internal standard warfarin) to stop the reaction. 20 μL of this was stirred with 180 μL of an aqueous 50% acetonitrile solution on a filter plate for protein depletion followed by suction filtration, and the filtrate was used as the standard sample.
The nature of data set [6]: Stability in the human liver microsome. The following applies: 0.5 mg/mL microsomes, NADPH, 15 minutes at 37° C. On the technique in general: Microsomes from liver hold many membrane-bound enzymes, among them those of drug oxidation.
Method: as §7, §8, §9, §10

Human CYP2C8, sequence (P10632 whole entry): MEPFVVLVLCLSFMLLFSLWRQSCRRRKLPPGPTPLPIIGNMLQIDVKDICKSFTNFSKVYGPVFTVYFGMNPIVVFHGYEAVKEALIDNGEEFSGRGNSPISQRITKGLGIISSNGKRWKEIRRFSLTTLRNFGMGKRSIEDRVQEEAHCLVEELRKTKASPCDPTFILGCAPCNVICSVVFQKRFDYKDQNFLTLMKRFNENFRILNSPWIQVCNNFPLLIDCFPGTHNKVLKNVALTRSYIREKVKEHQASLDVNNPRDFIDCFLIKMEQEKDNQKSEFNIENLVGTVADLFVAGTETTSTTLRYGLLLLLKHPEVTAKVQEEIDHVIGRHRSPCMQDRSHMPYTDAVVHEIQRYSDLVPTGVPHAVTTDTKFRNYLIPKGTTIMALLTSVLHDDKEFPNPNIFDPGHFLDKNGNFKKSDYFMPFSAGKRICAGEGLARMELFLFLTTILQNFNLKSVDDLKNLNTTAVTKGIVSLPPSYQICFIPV
Btk, sequence (Q06187 whole entry): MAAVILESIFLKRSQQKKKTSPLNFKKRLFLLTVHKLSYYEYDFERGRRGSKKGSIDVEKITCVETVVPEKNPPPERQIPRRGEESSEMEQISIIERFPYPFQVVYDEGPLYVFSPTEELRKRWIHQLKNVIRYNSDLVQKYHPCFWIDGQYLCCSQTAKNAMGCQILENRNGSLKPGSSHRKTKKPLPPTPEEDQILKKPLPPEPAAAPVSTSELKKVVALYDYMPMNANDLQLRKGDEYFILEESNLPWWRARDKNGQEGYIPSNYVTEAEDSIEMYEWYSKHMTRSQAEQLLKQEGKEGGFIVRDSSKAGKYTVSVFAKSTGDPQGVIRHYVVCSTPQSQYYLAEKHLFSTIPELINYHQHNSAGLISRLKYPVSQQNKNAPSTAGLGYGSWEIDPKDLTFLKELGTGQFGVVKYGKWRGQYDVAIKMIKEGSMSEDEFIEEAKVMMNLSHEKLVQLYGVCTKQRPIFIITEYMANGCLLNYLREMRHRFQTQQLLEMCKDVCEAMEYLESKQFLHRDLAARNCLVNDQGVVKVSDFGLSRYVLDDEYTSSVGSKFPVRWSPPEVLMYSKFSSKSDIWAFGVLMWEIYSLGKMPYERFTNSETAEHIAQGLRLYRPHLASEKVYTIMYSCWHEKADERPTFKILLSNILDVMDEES
Human CYP2C19, sequence (P33261 whole entry): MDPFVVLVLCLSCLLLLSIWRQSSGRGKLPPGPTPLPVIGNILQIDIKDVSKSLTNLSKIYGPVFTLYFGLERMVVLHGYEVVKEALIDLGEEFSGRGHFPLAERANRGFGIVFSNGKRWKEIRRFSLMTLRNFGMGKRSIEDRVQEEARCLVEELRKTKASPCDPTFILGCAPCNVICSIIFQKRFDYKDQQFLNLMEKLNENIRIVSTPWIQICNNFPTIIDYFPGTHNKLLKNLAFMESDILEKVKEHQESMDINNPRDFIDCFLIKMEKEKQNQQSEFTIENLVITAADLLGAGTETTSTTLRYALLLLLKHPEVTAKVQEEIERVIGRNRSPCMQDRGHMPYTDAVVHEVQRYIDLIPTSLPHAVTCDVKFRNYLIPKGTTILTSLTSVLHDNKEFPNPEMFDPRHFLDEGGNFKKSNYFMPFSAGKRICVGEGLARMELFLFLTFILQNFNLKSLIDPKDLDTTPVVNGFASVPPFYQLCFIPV
Lck, sequence (P06239 whole entry): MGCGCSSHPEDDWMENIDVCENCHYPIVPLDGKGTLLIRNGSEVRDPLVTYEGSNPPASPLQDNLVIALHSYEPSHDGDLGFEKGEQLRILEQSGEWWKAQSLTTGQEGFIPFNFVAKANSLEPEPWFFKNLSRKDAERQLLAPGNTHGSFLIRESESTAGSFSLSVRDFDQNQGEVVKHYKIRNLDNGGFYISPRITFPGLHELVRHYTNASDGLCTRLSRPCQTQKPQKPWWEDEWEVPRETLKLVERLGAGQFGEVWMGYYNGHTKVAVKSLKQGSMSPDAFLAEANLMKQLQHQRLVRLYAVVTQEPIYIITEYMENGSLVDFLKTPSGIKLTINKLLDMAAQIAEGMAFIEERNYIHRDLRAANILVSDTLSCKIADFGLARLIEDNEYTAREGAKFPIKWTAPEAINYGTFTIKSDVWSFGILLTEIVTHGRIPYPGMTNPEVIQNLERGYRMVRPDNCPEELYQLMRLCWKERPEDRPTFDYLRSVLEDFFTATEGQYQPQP
Fyn, sequence (P06241 whole entry): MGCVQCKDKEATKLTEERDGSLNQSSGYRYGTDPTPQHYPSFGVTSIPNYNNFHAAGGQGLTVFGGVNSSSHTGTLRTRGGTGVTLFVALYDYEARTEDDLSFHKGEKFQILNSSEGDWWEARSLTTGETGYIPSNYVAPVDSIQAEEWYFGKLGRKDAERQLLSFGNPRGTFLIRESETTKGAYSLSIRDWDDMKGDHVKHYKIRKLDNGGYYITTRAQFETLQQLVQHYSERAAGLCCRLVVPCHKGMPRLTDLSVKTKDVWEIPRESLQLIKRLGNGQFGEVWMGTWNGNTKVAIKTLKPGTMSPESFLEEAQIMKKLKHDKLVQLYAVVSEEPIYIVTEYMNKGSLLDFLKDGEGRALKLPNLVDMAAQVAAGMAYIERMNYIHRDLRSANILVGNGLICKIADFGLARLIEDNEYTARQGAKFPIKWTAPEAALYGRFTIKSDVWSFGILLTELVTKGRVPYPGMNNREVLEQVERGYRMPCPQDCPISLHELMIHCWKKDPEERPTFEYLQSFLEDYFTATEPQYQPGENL
LynA, sequence (P07948 whole entry): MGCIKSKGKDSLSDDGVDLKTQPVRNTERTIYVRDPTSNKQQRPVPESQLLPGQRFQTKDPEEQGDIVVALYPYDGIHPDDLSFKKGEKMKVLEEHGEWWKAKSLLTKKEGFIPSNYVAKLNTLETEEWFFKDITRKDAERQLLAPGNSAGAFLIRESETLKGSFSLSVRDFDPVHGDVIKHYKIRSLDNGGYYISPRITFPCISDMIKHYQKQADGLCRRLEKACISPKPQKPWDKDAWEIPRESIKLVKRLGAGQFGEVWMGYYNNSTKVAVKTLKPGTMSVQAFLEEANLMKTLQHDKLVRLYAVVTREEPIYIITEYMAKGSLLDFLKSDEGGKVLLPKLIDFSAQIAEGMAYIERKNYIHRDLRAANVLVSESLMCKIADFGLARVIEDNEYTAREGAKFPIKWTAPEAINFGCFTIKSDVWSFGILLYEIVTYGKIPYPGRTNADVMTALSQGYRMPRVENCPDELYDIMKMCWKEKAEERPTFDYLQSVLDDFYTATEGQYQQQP

On to `C=CC(=O)N1CCC[C@@H](n2nc(-c3ccc(Oc4ccccc4)cc3)c3c(N)ncnc32)C1` [Comparative compound A, reference compound], for which the IC50 in the data set with Human liver cells [1] was determined as 78 µM; on Human CYP2C19, 5.6 µM; in the data set on Human liver cells [2], 39 µM.
As for `C=CC(=O)N1CCC(Cn2c(=O)n(-c3ccc(Oc4ccccc4)cc3)c3c(N)ncnc32)CC1` [Example 8(14), 9-[(1-acryloyl-4-piperidinyl)methyl]-6-amino-7-(4-phenoxyphenyl)-7,9-dihydro-8H-purin-8-one], the concentration for half-maximal inhibition (IC50) in data set [3] was 0.023 µM; in data set [4], more than 10 µM; on Human CYP2C8, more than 10 µM; against Btk, 0.004 µM; at Human CYP2C19 it was more than 10 µM. In addition, at Fyn, the “Fyn[IC50]/Btk[IC50]” value turned out to be 2500. In addition, the “LynA[IC50]/Btk[IC50]” value on LynA amounted to 1767. The “Lck[IC50]/Btk[IC50]” value on Lck worked out at 220.
As for `CN(C)C/C=C/C(=O)N1CC[C@@H](n2c(=O)n(-c3ccc(Oc4ccccc4)cc3)c3c(N)ncnc32)C1` [Example 11(3), 6-amino-9-{(3R)-1-[(2E)-4-(dimethylamino)-2-butenoyl]-3-pyrrolidinyl}-7-(4-phenoxyphenyl)-7,9-dihydro-8H-purin-8-one], the concentration for half-maximal inhibition (IC50) in data set [3] was 0.032 µM; in data set [4], more than 10 µM; on Human CYP2C8, more than 10 µM; against Btk it was 0.014 µM; at Human CYP2C19, more than 10 µM. For the same compound, the “Fyn[IC50]/Btk[IC50]” value at Fyn is 236. Moreover, the “LynA[IC50]/Btk[IC50]” value on LynA is given as 143. At Lck, the “Lck[IC50]/Btk[IC50]” value turned out to be 19.
As for `CN(C)C/C=C/C(=O)N1CCC(n2c(=O)n(-c3ccc(Oc4ccccc4)cc3)c3c(N)ncnc32)C1` (centres unmarked) [Example 11(24), 6-amino-9-{1-[(2E)-4-(dimethylamino)-2-butenoyl]-3-pyrrolidinyl}-7-(4-phenoxyphenyl)-7,9-dihydro-8H-purin-8-one], the IC50 came to 213 µM in the data set with Human liver cells [1] and 347 µM in the data set with Human liver cells [2]. The “Residual ratio (%) in the rat liver microsome” value in [5] stood at 88.5%. Further, the “Residual ratio (%) in the human liver microsome” value in data set [6] came to 100%.
For the compound `CC#CC(=O)N1CC[C@@H](n2c(=O)n(-c3ccc(Oc4ccccc4)cc3)c3c(N)ncnc32)C1` [Example 19(2), 6-amino-9-[(3R)-1-(2-butynoyl)-3-pyrrolidinyl]-7-(4-phenoxyphenyl)-7,9-dihydro-8H-purin-8-one], the IC50 in data set [3] is 0.061 µM; in data set [4], more than 10 µM; on Human CYP2C8 it was more than 10 µM; with Human liver cells [1] it was 135 µM; on Human CYP2C19, more than 10 µM; with Human liver cells [2], 200 µM.
On to `CC#CC(=O)N1CCC(n2c(=O)n(-c3ccc(Oc4ccccc4)cc3)c3c(N)ncnc32)C1` (centres unmarked) [Example 19(9), 6-amino-9-[1-(2-butynoyl)-3-pyrrolidinyl]-7-(4-phenoxyphenyl)-7,9-dihydro-8H-purin-8-one], for which the results for the IC50 in the data set with Human liver cells [1] and in the data set on Human liver cells [2] were 97 µM and 181 µM, respectively.
Compound `CC#CC(=O)N1CC[C@@H](n2c(=O)n(-c3ccc(C(=O)c4ccccc4)cc3)c3c(N)ncnc32)C1` [Example 19(40), 6-amino-7-(4-benzoylphenyl)-9-[(3R)-1-(2-butynoyl)-3-pyrrolidinyl]-7,9-dihydro-8H-purin-8-one] yielded an IC50 against Btk of 0.011 µM.
